Assay results as given in patent publication US20210386705A1, “APPLICATION OF CHIGLITAZAR AND RELATED COMPOUNDS THEREOF” (SHENZHEN CHIPSCREEN BIOSCIENCES CO., LTD., priority 2018, published 2021).

Key:
[1] = test system: connective tissue growth factor (CTGF); experiment: TGF-β1-activated hepatic stellate cells, CTGF gene expression (qPCR); assay type: cell-based, human; details: TGF-β1 stimulation, 24 hours; FIG. 4
Experimental: Human primary hepatic stellate cells were seeded into 6-well plates with complete growth media (Stellate Cell Medium) for 24 hours, and then the culture media were replaced by fresh media (free of serum and growth factors) containing TGF-β1 and the compound to be tested (sodium chiglitazar) or the reference compound PPARγ/α dual agonist pioglitazone or PPARα/δ dual agonist GFT505 (both purchased from Selleck), and the cells were cultured for 24 hours. The total RNAs of the samples were extracted, and reverse transcription reaction was performed. Thereafter, a conventional PCR amplification kit (FastStart Universal SYBR@ Green Master (ROX), Roche) was used for further detection, where the PCR primers were designed with reference to the NCBI standard mRNA sequence of the target genes (Table 2). PCR reaction and detection were carried out on the ABI StepOnePlus real-time quantitative PCR instrument.
By calculating the relative amount of transcripts was calculate by “Delta-Delta CT method” (Livak et al. Methods 2001), and using ACTB as the housekeeping gene for normalization and the average data of untreated human hepatic stellate cells as a reference control, the relative change folds of gene expression were obtained (FIG. 4).

[2] = test system: CCl4-induced liver fibrosis; experiment: Mouse model of carbon tetrachloride induced liver fibrosis; assay type: in vivo, BALB/c mice; details: 40, 20 and 10 mg/kg intragastrically, from the fourth week to the 7th week
Experimental: BALB/c mice were injected intraperitoneally with 25% CCl4 (4 mL/kg body weight) twice a week, which can cause liver damage and chronic liver fibrosis in 3 weeks. The model animals were administered for 6 weeks continuously, and the non-model control group was administered the solvent control olive oil for the same period. Model animals were randomly divided into groups from the third week. The control group was administered solvent (0.2% sodium methylcellulose) intragastrically from the fourth week, and the sodium chiglitazar at high, medium and low dose groups were administered 40, 20, and 10 mg/kg body weight of the active ingredient sodium chiglitazar intragastrically, respectively (Table 4), until the end of the experiment in the 7th week. […]
The liver tissue sections were stained with Picrosirius Red for morphological observation (FIG. 9), and measured by using a semi-automatic digital image analysis system and the measurement software (OsteoMetrics, Inc.). The pathologist single-blindly tested and hand-drew the entire sections, and then measured the fibrosis area on the entire sections in straight lines. The software automatically calculated the total area of the measurement. […]

[3] = test system: primary human dermal fibroblasts; experiment: PDGF-BB stimulated proliferation of dermal fibroblasts (MTT assay); assay type: cell-based; details: MTT 72 hours, FIG. 3
Experimental: Primary human hepatic stellate cells or primary human dermal fibroblasts (HDF), both purchased from Sciencell, were seeded into 96-well plates with complete growth media (Stellate Cell Medium or Fibroblast Cell Medium) for 24 hours, followed by culturing overnight in the culture media free of serum and growth factors, and then the culture media were replaced by fresh medium containing platelet-derived growth factor (PDGF-BB) and the compounds to be tested at various concentrations, and the cells was cultured for another 72 hours. Measurement was performed using a conventional MTT assay kit (Promega). […] The inhibition of cell proliferation by the compounds was determined by comparing the absorbance value of the control group (FIGS. 2, 3).

**Q.** Which results are given for `O=C(c1ccc(F)cc1)c1ccccc1N[C@@H](Cc1ccc(OCCn2c3ccccc3c3ccccc32)cc1)C(=O)[O-].[Na+]` [sodium chiglitazar]?
**A.** Effect on expression of connective tissue growth factor [1]: significant and dose-dependent inhibitory effect; Inflammatory activity of liver tissues (Metavir score, H&E staining) ([2]; FIGS. 7-8): partially inhibit; Fibrosis degree of liver tissues (fibrosis area %, Picrosirius Red) ([2]; FIGS. 9-10): partially inhibit; Inhibition of in vitro proliferation of skin-derived fibroblasts [3]: had inhibitory activity
